Results taken from patent US12059420B2 (BRISTOL-MYERS SQUIBB COMPANY, priority 2018, dated 2024).
Structures can show the parent of a compound that is named as a salt.

Biological target: T1, human IDO1 (Homo sapiens, UniProt P14902)
T1 construct: expressed in transfected cells
Assay: IDO inhibition assay in HEK293 cells stably expressing human IDO1 (kynurenine production, Ehrlich reagent, absorbance 490 nm)
Assay type: cell-based
Settings: 20 hours incubation with compound, 500 nM reference standard = 100% inhibition, read-out: IDO1 HEK Human IC50
Protocol: HEK293 cells were transfected with a pCDNA-based mammalian expression vector harboring human IDO1 cDNA (NM 002164.2) by electroporation. They were cultured in medium (DMEM with 10% FBS) containing 1 mg/ml G418 for two weeks. Clones of HEK293 cells that stably expressed human IDO1 protein were selected and expanded for IDO inhibition assay.
The human IDO1/HEK293 cells were seeded at 10,000 cells per 50 μL per well with RPMI/phenol red free media contains 10% FBS in a 384-well black wall clear bottom tissue culture plate (Matrix Technologies LLC) 100 nL of certain concentration of compound was then added to each well using ECHO liquid handling systems. The cells were incubated for 20 hours in 37° C. incubator with 5% CO2.
The compound treatments were stopped by adding trichloroacetic acid (Sigma-Aldrich) to a final concentration at 0.2%. The cell plate was further incubated at 50° C. for 30 minute. The equal volume supernatant (20 μL) and 0.2% (w/v) Ehrlich reagent (4-dimethylaminobenzaldehyde, Sigma-Aldrich) in glacial acetic acid were mixed in a new clear bottom 384-well plate. This plate was then incubated at RT for 30 minute. The absorbance at 490 nm was measured on Envision plate reader.
Compound IC50 values were calculated using the counts of 500 nM of a reference standard treatment as one hundred percent inhibition, and counts of no compound but DMSO treatment as zero percent inhibition.

T1 sequence (P14902 whole entry): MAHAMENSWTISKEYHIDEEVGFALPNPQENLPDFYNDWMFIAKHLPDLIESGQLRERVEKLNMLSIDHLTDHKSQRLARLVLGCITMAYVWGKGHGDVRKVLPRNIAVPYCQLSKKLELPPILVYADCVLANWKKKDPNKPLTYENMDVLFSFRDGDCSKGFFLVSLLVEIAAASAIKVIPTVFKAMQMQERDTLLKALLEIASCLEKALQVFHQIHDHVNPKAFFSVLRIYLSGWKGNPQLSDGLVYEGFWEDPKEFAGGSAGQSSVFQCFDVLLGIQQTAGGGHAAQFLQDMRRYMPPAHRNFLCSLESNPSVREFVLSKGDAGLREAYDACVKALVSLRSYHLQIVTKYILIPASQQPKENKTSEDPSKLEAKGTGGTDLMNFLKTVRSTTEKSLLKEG

Compound | IC50 [nM]
CCCN(Cc1ccccc1)c1cc(NC(=O)Nc2ccc(C)cc2)cc(-c2cc(C)ccc2-c2noc(=O)[nH]2)n1 [Example 26, 1-(2-(benzyl(propyl)amino)-6-(5-methyl-2-(5-oxo-4,5-dihydro-1,2,4-oxadiazol-3-yl)phenyl)pyridin-4-yl)-3-(p-tolyl)urea] | 11.8
CCCN(Cc1ccccc1)c1cc(NC(=O)Nc2ccc(C)cc2)cc(-c2ccccc2S(=O)(=O)NC(C)=O)n1 [Example 35, N-((2-(6-(benzyl (propyl)amino)-4-(3-(p-tolyl)ureido)pyridin-2-yl)phenyl)sulfonyl) acetamide] | 256
CCCN(Cc1ccccc1)c1cc(NC(=O)Nc2ccccc2C(F)(F)F)cc(-c2ccccc2-c2nnn[nH]2)n1 [Example 36, 1-(2-(2-(1H-tetrazol-5-yl)phenyl)-6-(benzyl(propyl)amino)pyridin-4-yl)-3-(2-(trifluoromethyl)phenyl)urea] | 205
CCCN(Cc1ccccc1)c1cc(NC(=O)Nc2ccc(C)nn2)cc(-c2ccccc2-c2nnn[nH]2)n1 [Example 37, 1-(2-(2-(1H-tetrazol-5-yl)phenyl)-6-(benzyl(propyl)amino)pyridin-4-yl)-3-(6-methyl-pyridazin-3-yl) urea] | 3140
CCCN(Cc1ccccc1)c1cc(NC(=O)Nc2ccc(C)cc2)cc(-c2ccccc2C(N)=O)n1 [Example 38, 2-(6-(benzyl (propyl)amino)-4-(3-(p-tolyl)ureido)pyridin-2-yl) benzamide] | 302
CC(C)CN(Cc1ccc(F)cc1)c1cc(Nc2ccn3nccc3n2)cc(-c2ccccc2-c2nnn[nH]2)n1 [Example 42, 6-(2-(1H-tetrazol-5-yl)phenyl)-N2-(4-fluorobenzyl)-N2-isobutyl-N4-(pyrazolo[1,5-a]pyrimidin-5-yl)pyridine-2,4-diamine, TFA] | 120
CC(C)CN(Cc1ccc(F)cc1)c1cc(Nc2nc3ccccc3s2)cc(-c2ccccc2-c2nnn[nH]2)n1 [Example 43, 6-(2-(1H-tetrazol-5-yl)phenyl)-N4-(benzo[d]thiazol-2-yl)-N2-(4-fluorobenzyl)-N2-isobutylpyridine-2,4-diamine, TFA] | 31.2
Cc1ncccc1Nc1cc(-c2ccccc2-c2nnn[nH]2)nc(N(Cc2ccc(F)cc2)CC(C)C)c1 [Example 45, 6-(2-(1H-tetrazol-5-yl)phenyl)-N2-(4-fluorobenzyl)-N2-isobutyl-N4-(2-methylpyridin-3-yl)pyridine-2,4-diamine, TFA] | 239
CC(C)CN(Cc1ccc(F)cc1)c1cc(Nc2ccc3c(c2)OCO3)cc(-c2ccccc2-c2nnn[nH]2)n1 [Example 46, 6-(2-(1H-tetrazol-5-yl)phenyl)-N4-(benzo[d][1,3]dioxol-5-yl)-N2-(4-fluorobenzyl)-N2-isobutylpyridine-2,4-diamine] | 1.1
CC(C)CN(Cc1ccc(F)cc1)c1cc(Nc2ccc(F)cn2)cc(-c2ccccc2-c2nnn[nH]2)n1 [Example 48, 6-(2-(1H-tetrazol-5-yl)phenyl)-N2-(4-fluorobenzyl)-N4-(5-fluoropyridin-2-yl)-N2-isobutylpyridine-2,4-diamine] | 10.7
Cc1cnc(Nc2cc(-c3ccccc3-c3nnn[nH]3)nc(N(Cc3ccccc3)CC(C)C)c2)cn1 [Example 49, 6-(2-(1H-tetrazol-5-yl)phenyl)-N2-benzyl-N2-isobutyl-N4-(5-methylpyrazin-2-yl)pyridine-2,4-diamine, TFA] | 31.6
CC(C)CN(Cc1ccccc1)c1cc(Nc2ccn3nccc3n2)cc(-c2ccccc2-c2nnn[nH]2)n1 [Example 50, 6-(2-(1H-tetrazol-5-y1)phenyl)-N2-benzyl-N2-isobutyl-N4-(pyrazolo[1,5-a]pyrimidin-5-yl)pyridine-2,4-diamine] | 131
Cc1cnc(Nc2cc(-c3ccccc3-c3nnn[nH]3)nc(N(Cc3ccccc3)CC(C)C)c2)nc1 [Example 51, 6-(2-(1H-tetrazol-5-yl)phenyl)-N2-benzyl-N2-isobutyl-N4-(5-methylpyrimidin-2-yl)pyridine-2,4-diamine] | 60.3
CC(C)CN(Cc1ccccc1)c1cc(Nc2nnc(-c3ccccc3)s2)cc(-c2ccccc2-c2nnn[nH]2)n1 [Example 52, 6-(2-(1H-tetrazol-5-yl)phenyl)-N2-benzyl-N2-isobutyl-N4-(5-phenyl-1,3,4-thiadiazol-2-yl)pyridine-2,4-diamine] | 191
CC(C)CN(Cc1ccccc1)c1cc(Nc2nccc(N3CCOCC3)n2)cc(-c2ccccc2-c2nnn[nH]2)n1 [Example 53, 6-(2-(1H-tetrazol-5-yl)phenyl)-N2-benzyl-N2-isobutyl-N4-(4-morpholinopyrimidin-2-yl)pyridine-2,4-diamine, TFA] | 4.9
CC(C)CN(Cc1ccccc1)c1cc(Nc2ncc(F)cn2)cc(-c2ccccc2-c2nnn[nH]2)n1 [Example 55, 6-(2-(1H-tetrazol-5-yl)phenyl)-N2-benzyl-N4-(5-fluoropyrimidin-2-yl)-N2-isobutylpyridine-2,4-diamine, 1.5 TFA] | 11.5
CC(C)CN(Cc1ccccc1)c1cc(Nc2ccc(F)cc2F)cc(-c2ccccc2-c2nnn[nH]2)n1 [Example 56, 6-(2-(1H-tetrazol-5-yl)phenyl)-N2-benzyl-N4-(2,4-difluorophenyl)-N2-isobutylpyridine-2,4-diamine] | 8.6
CC(C)CN(Cc1ccccc1)c1cc(Nc2ccc3c(c2)OCO3)cc(-c2ccccc2-c2nnn[nH]2)n1 [Example 57, 6-(2-(1H-tetrazol-5-yl)phenyl)-N4-(benzo[d][1,3]dioxol-5-yl)-N2-benzyl-N2-isobutylpyridine-2,4-diamine] | 4

Further compounds by falling IC50, results first:

IC50 [nM] | Compound
4100 | CCCN(Cc1ccccc1)c1cc(NC(=O)Nc2ccc(C)cc2)cc(-c2ccccc2S(=O)(=O)NC(=O)c2ccccc2)n1 [Example 32, N-((2-(6-(benzyl (propyl)amino)-4-(3-(p-tolyl)ureido)pyridin-2-yl)phenyl)sulfonyl) benzamide]
616 | CCCN(Cc1ccccc1)c1cc(NC(=O)Cc2ccc(C)cc2)cc(-c2ccccc2C(N)=O)n1 [Example 29]
607 | CCCN(Cc1ccccc1)c1cc(NC(=O)Nc2ccc(C)cc2)cc(-c2ccccc2S(N)(=O)=O)n1 [Example 27, 2-(6-(benzyl (propyl)amino)-4-(3-(p-tolyl)ureido)pyridin-2-yl) benzene sulfonamide]
563 | Cc1ccc(Nc2cc(-c3ccccc3-c3nnn[nH]3)nc(N(Cc3ccc(F)cc3)CC(C)C)c2)nn1 [Example 41, 6-(2-(1H-tetrazol-5-yl)phenyl)-N2-(4-fluorobenzyl)-N2-isobutyl-N4-(6-methylpyridazin-3-yl)pyridine-2,4-diamine, TFA]
508 | CCCN(Cc1ccccc1)c1cc(NC(=O)Cc2ccc(C)cc2)cc(-c2ccccc2S(N)(=O)=O)n1 [Example 33, N-(2-(benzyl (propyl)amino)-6-(2-sulfamoylphenyl)pyridin-4-yl)-2-(p-tolyl) acetamide]
237 | CCCN(Cc1ccccc1)c1cc(NC(=O)Cc2ccc(C)cc2)cc(-c2ccccc2S(=O)(=O)NC(C)=O)n1 [Example 34, N-(2-(2-(N-acetylsulfamoyl)phenyl)-6-(benzyl(propyl)amino)pyridin-4-yl)-2-(p-tolyl) acetamide]
80.1 | CCCN(Cc1ccccc1)c1cc(NC(=O)Cc2ccc(C)cc2)cc(-c2ccccc2-c2nc(=O)o[nH]2)n1 [Example 28, N-(2-(benzyl (propyl)amino)-6-(2-(5-oxo-2,5-dihydro-1,2,4-oxadiazol-3-yl)phenyl)pyridin-4-yl)-2-(p-tolyl)acetamide]
35.7 | CC(C)CN(Cc1ccc(F)cc1)c1cc(Nc2ncc(F)cn2)cc(-c2ccccc2-c2nnn[nH]2)n1 [Example 44, 6-(2-(1H-tetrazol-5-yl)phenyl)-N2-(4-fluorobenzyl)-N4-(5-fluoropyrimidin-2-yl)-N2-isobutylpyridine-2,4-diamine, TFA]
33.1 | Cc1cnc(Nc2cc(-c3ccccc3-c3nnn[nH]3)nc(N(Cc3ccc(F)cc3)CC(C)C)c2)nc1 [Example 40, 6-(2-(1H-tetrazol-5-yl)phenyl)-N2-(4-fluorobenzyl)-N2-isobutyl-N4-(5-methylpyrimidin-2-yl)pyridine-2,4-diamine, TFA]
17.2 | CC(C)CN(Cc1ccc(F)cc1)c1cc(Nc2cccc(C(F)F)n2)cc(-c2ccccc2-c2nnn[nH]2)n1 [Example 47, 6-(2-(1H-tetrazol-5-y1)phenyl)-N4-(6-(difluoromethyl)pyridin-2-yl)-N2-(4-fluorobenzyl)-N2-isobutylpyridine-2,4-diamine]
13.9 | CCCN(Cc1ccccc1)c1cc(NC(=O)Nc2ccc(C)cc2)cc(-c2ccccc2-c2nc(=O)o[nH]2)n1 [Example 31, 1-(2-(benzyl (propyl)amino)-6-(2-(5-oxo-4,5-dihydro-1,2,4-oxadiazol-3-yl)phenyl)pyridin-4-yl)-3-(p-tolyl) urea]
4.2 | CCCN(Cc1ccccc1)c1cc(Nc2ccc3nc(C)sc3c2)cc(-c2ccccc2-c2nnn[nH]2)n1 [Example 58, 6-(2-(1H-tetrazol-5-yl)phenyl)-N2-benzyl-N4-(2-methylbenzo [d]thiazol-6-yl)-N2-propylpyridine-2,4-diamine]
2.4 | CC(C)CN(Cc1ccc(F)cc1)c1cc(Nc2ccc(F)cc2)cc(-c2ccccc2-c2nnn[nH]2)n1 [Example 39, 6-(2-(1H-tetrazol-5-yl)phenyl)-N2-(4-fluorobenzyl)-N4-(4-fluorophenyl)-N2-isobutylpyridine-2,4-diamine]
